Test system: cardiac hypertrophy
Experiment: 7-day continuous infusion, reversing cardiac hypertrophy (heart weight)
Assay type: in vivo
Conditions: 30 pmole per kg per minute
Description: Heart Weight (grams H2 O per 100 grams tissue)

## Arg-Arg-Ser-Ser-Cys-Phe-Gly-Gly-Arg-Ile-Asp-Arg-Ile-Gly-Ala-Gln-Ser-Gly-Leu-Gly-Cys-Asn-Ser-Phe-Arg-Tyr (RRSSCFGGRIDRIGAQSGLGCNSFRY; printed: Arg-Arg-Ser-Ser-Cys-Phe-Gly-Gly-Arg-Ile-Asp-Arg-Ile-Gly-Ala-Gln-Ser-Gly-Leu-Gly-Cys-Asn-Ser-Phe-Arg-Tyr) [PEPTIDE OF EXAMPLE 5]
NORMAL group, n = 22
  Heart Weight: 0.45 + 0.02 grams H2 O per 100 grams tissu
First group (heading not given, presumably hypertrophic animals), n = 23, statistically significant at p less than 0.05
  Heart Weight: 0.70 + 0.03 grams H2 O per 100 grams tissu

Reference: patent US4652549A, “Cardiac anti-hypertrophic agents” (Merck & Co., Inc., priority 1985, dated 1987)
